Reference: PubChem BioAssay AID330 (DTP/NCI, 2004)
“And” between values parts separate entries of the source, which are not always exact repeats. Identical values can stand only once. Toxic doses and inconclusive results are not listed.

System: P388 leukemia ip, CD2F1 mice, survival T/C
Assay: NCI In Vivo Anticancer Drug Screen. Data for tumor model P388 Leukemia (intraperitoneal) in CD2F1 (CDF1) mice
Conditions: endpoint: median survival time, higher = longer survival
Outline: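 Mice carrying the transplanted tumor received test compound or vehicle. Survival was recorded in each group, and the value is the treated-group measurement divided by that of the vehicle-treated control group.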

[1] = dose: 50.0 mg/kg/injection, schedule: Q01DX009 (ip), vehicle: saline with Tween-80
[2] = dose: 50.0 mg/kg/injection, schedule: Q01DX009 (ip), vehicle: Klucel (hydroxypropylcellulose) (HPC)
[3] = dose: 100.0 mg/kg/injection, schedule: Q01DX009 (ip), vehicle: Klucel (hydroxypropylcellulose) (HPC)
[4] = dose: 200.0 mg/kg/injection, schedule: Q01DX009 (ip), vehicle: Klucel (hydroxypropylcellulose) (HPC)
[5] = dose: 60.0 mg/kg/injection, schedule: Q01DX005 (ip), vehicle: saline with Tween-80
[6] = dose: 240.0 mg/kg/injection, schedule: Q01DX005 (ip), vehicle: saline with Tween-80
[7] = dose: 50.0 mg/kg/injection, schedule: Q04DX002 (ip), vehicle: saline with Tween-80
[8] = dose: 100.0 mg/kg/injection, schedule: Q04DX002 (ip), vehicle: saline with Tween-80
[9] = dose: 200.0 mg/kg/injection, schedule: Q04DX002 (ip), vehicle: saline with Tween-80
[10] = dose: 100.0 mg/kg/injection, schedule: Q01DX001 (ip), vehicle: saline with Tween-80
[11] = dose: 200.0 mg/kg/injection, schedule: Q01DX001 (ip), vehicle: saline with Tween-80
[12] = dose: 120.0 mg/kg/injection, schedule: Q01DX005 (ip), vehicle: saline with Tween-80
[13] = dose: 50.0 mg/kg/injection, schedule: Q01DX009 (ip), vehicle: saline
[14] = dose: 100.0 mg/kg/injection, schedule: Q01DX009 (ip), vehicle: saline
[15] = dose: 25.0 mg/kg/injection, schedule: Q01DX009 (ip), vehicle: saline
[16] = dose: 100.0 mg/kg/injection, schedule: Q01DX001 (ip), vehicle: Klucel (hydroxypropylcellulose) (HPC)
[17] = dose: 200.0 mg/kg/injection, schedule: Q01DX001 (ip), vehicle: Klucel (hydroxypropylcellulose) (HPC)
[18] = dose: 400.0 mg/kg/injection, schedule: Q01DX001 (ip), vehicle: Klucel (hydroxypropylcellulose) (HPC)
[19] = dose: 100.0 mg/kg/injection, schedule: Q04DX003 (ip), vehicle: Klucel (hydroxypropylcellulose) (HPC)

In the case of ClC1=C(Cl)C(Cl)=C(Cl)C1=Cc1ccccc1, the T/C (dose: 6.25 mg/kg/injection, schedule: Q01DX009 (ip), vehicle: saline with Tween-80) is reported as 108 % of control, the T/C (dose: 12.5 mg/kg/injection, schedule: Q01DX009 (ip), vehicle: saline with Tween-80) is reported as 118 % of control and the T/C (dose: 25.0 mg/kg/injection, schedule: Q01DX009 (ip), vehicle: saline with Tween-80) is reported as 117 % of control. For the same molecule, the T/C [1] was 123 % of control.
In the case of CCn1c(=O)c2[nH]c(SC)nc2n(CC)c1=O, the T/C (dose: 16.0 mg/kg/injection, schedule: Q01DX009 (ip), vehicle: Klucel (hydroxypropylcellulose) (HPC)) is reported as 105 % of control, the T/C (dose: 32.0 mg/kg/injection, schedule: Q01DX009 (ip), vehicle: Klucel (hydroxypropylcellulose) (HPC)) is reported as 107 % of control and the T/C [2] is reported as 116 % of control. For the same molecule, the T/C (dose: 64.0 mg/kg/injection, schedule: Q01DX009 (ip), vehicle: Klucel (hydroxypropylcellulose) (HPC)) was 104 % of control, the T/C [3] was 111 % of control and the T/C [4] was 100 % of control.
CCC1(O)C(=O)OCc2c1cc1n(c2=O)Cc2cc3ccccc3nc2-1 (centres undefined) was tested, and the T/C (dose: 2.0 mg/kg/injection, schedule: Q04DX003 (ip), vehicle: other) was 150 % of control and 153 % of control, the T/C (dose: 4.0 mg/kg/injection, schedule: Q04DX003 (ip), vehicle: other) was 167 % of control and 178 % of control and the T/C (dose: 8.0 mg/kg/injection, schedule: Q04DX003 (ip), vehicle: other) was 222 % of control and 229 % of control. For the same molecule, the T/C (dose: 16.0 mg/kg/injection, schedule: Q04DX003 (ip), vehicle: other) was 118 % of control.
In the case of CCCCCCC(O)Cc1cc(-c2ccccc2)nc(=O)[nH]1 (centres undefined), the T/C (dose: 15.0 mg/kg/injection, schedule: Q01DX005 (ip), vehicle: saline with Tween-80) is reported as 97 % of control, the T/C [5] is reported as 87 % of control and the T/C [6] is reported as 95 % of control.
Cc1cc(OC(=O)Nc2ccc(Cl)c([N+](=O)[O-])c2)c(Cl)cc1Br was tested, and the T/C (dose: 50.0 mg/kg/injection, schedule: Q01DX009 (ip), vehicle: saline + alcohol) was 100 % of control, the T/C (dose: 100.0 mg/kg/injection, schedule: Q01DX009 (ip), vehicle: saline + alcohol) was 105 % of control and the T/C (dose: 200.0 mg/kg/injection, schedule: Q01DX009 (ip), vehicle: saline + alcohol) was 88 % of control.
CC(=O)n1c2ccccc2c2c(C)c3cnccc3c(C)c21 was tested, and the T/C (dose: 12.5 mg/kg/injection, schedule: Q04DX002 (ip), vehicle: saline with Tween-80) was 114 % of control, the T/C (dose: 25.0 mg/kg/injection, schedule: Q04DX002 (ip), vehicle: saline with Tween-80) was 124 % of control and the T/C [7] was 152 % of control. For the same molecule, the T/C [8] was 171 % of control and the T/C [9] was 196 % of control.
With Cc1cc[n+]2cc(-c3ccc(/C=N/N=C(N)N)cc3)n(C)c2c1 the T/C (dose: 1.56 mg/kg/injection, schedule: Q01DX005 (ip), vehicle: Klucel (hydroxypropylcellulose) (HPC)) was 100 % of control, the T/C (dose: 3.12 mg/kg/injection, schedule: Q01DX005 (ip), vehicle: Klucel (hydroxypropylcellulose) (HPC)) was 103 % of control and the T/C (dose: 6.25 mg/kg/injection, schedule: Q01DX005 (ip), vehicle: Klucel (hydroxypropylcellulose) (HPC)) was 102 % of control and 107 % of control.
For NC(=O)NCCSc1ccc(SCCNC(N)=O)nn1, the T/C [2] was 109 % of control, the T/C [3] was 100 % of control and the T/C [4] was 98 % of control. The T/C (dose: 400.0 mg/kg/injection, schedule: Q01DX009 (ip), vehicle: Klucel (hydroxypropylcellulose) (HPC)) was 90 % of control.
In the case of O=C(CNNC(=S)Nc1cccc2ccccc12)c1cccc2c1Nc1ccccc1S2, the T/C [2] is reported as 101 % of control, the T/C [3] is reported as 103 % of control and the T/C [4] is reported as 101 % of control.
In the case of C=C(C)C1(n2[nH]c(=O)n(-c3ccccc3)c2=O)CCC(C)=CC1=O (centres undefined), the T/C [10] is reported as 102 % of control, the T/C [11] is reported as 95 % of control and the T/C (dose: 400.0 mg/kg/injection, schedule: Q01DX001 (ip), vehicle: saline with Tween-80) is reported as 87 % of control.
For COC(=O)c1cc([O-])c2sc(C)c(C)[n+]2n1, the T/C [5] was 100 % of control, the T/C [12] was 100 % of control and the T/C [6] was 100 % of control.
O=S(=O)(O)C1CC2NC3C4CCCC(S(=O)(=O)O)C4C(Nc4ccccc4)CC3N(c3ccccc3)C2CC1Nc1ccccc1 (centres undefined) was tested, and the T/C [13] was 112 % of control, the T/C [14] was 116 % of control and the T/C (dose: 200.0 mg/kg/injection, schedule: Q01DX009 (ip), vehicle: saline) was 116 % of control.
For CC1(C)CC2C3=CCC4C5(C)CCC(O)C(C)(C)C5CCC4(C)C3(C)CCC2(CO)C(O)C1O (centres undefined), the T/C (dose: 3.25 mg/kg/injection, schedule: Q01DX005 (ip), vehicle: Klucel (hydroxypropylcellulose) (HPC)) was 99 % of control, the T/C (dose: 6.5 mg/kg/injection, schedule: Q01DX005 (ip), vehicle: Klucel (hydroxypropylcellulose) (HPC)) was 99 % of control and the T/C (dose: 13.0 mg/kg/injection, schedule: Q01DX005 (ip), vehicle: Klucel (hydroxypropylcellulose) (HPC)) was 99 % of control. For the same molecule, the T/C (dose: 26.0 mg/kg/injection, schedule: Q01DX005 (ip), vehicle: Klucel (hydroxypropylcellulose) (HPC)) was 98 % of control.
CC([OH2+])CNCCN.CC([OH2+])CNCCN.[Ni+2].[O-][Cl+3]([O-])([O-])[O-] (centres undefined) was tested, and the T/C (dose: 12.5 mg/kg/injection, schedule: Q01DX009 (ip), vehicle: saline) was 111 % of control and the T/C [15] was 100 % of control.
With COc1ccc(N=C(c2ccccc2)C2C(=O)c3ccccc3C2=O)cc1 the T/C (dose: 50.0 mg/kg/injection, schedule: Q01DX005 (ip), vehicle: saline with Tween-80) was 103 % of control, the T/C (dose: 100.0 mg/kg/injection, schedule: Q01DX005 (ip), vehicle: saline with Tween-80) was 108 % of control and the T/C (dose: 200.0 mg/kg/injection, schedule: Q01DX005 (ip), vehicle: saline with Tween-80) was 112 % of control.
For CCOC(=O)N[C@H]1CCc2cc(OC)c(OC)c(OC)c2-c2ccc(SC)c(=O)cc21, the T/C (dose: 0.75 mg/kg/injection, schedule: Q01DX009 (ip), vehicle: other) was 163 % of control, the T/C (dose: 1.5 mg/kg/injection, schedule: Q01DX009 (ip), vehicle: other) was 172 % of control and the T/C (dose: 3.0 mg/kg/injection, schedule: Q01DX009 (ip), vehicle: other) was 109 % of control and 114 % of control.
For CCC(C)C(=O)OC1C(=O)OC2CC3C(C)=CC(=O)C(O)C3(C)C3C4(O)OCC23C1C(C)C4O (centres undefined), the T/C (dose: 2.0 mg/kg/injection, schedule: Q01DX009 (ip), vehicle: saline) was 96 % of control.
In the case of CCCCCCCCCCCCCCCC(=O)OCC(COP(=O)(O)OC1CCC2(C)C(=CCC3C2CCC2(C)C(C(C)CCCC(C)C)CCC32)C1)OC(=O)CCCCCCCCCCCCCCC (centres undefined), the T/C [16] is reported as 97 % of control, the T/C [17] is reported as 99 % of control and the T/C [18] is reported as 96 % of control.
With CCCN=Cc1cc(Cc2ccc(O)c(C=NCCC)c2)ccc1O the T/C (dose: 50.0 mg/kg/injection, schedule: Q04DX003 (ip), vehicle: Klucel (hydroxypropylcellulose) (HPC)) was 123 % of control and the T/C [19] was 104 % of control and 119 % of control.
With CC(C)(C)N(N)Cc1ccccc1 the T/C [15] was 99 % of control, the T/C [13] was 104 % of control and the T/C [14] was 104 % of control.
CN1NC(c2ccccc2)=C(C#N)C(=O)CC1c1ccccc1 (centres undefined) was tested, and the T/C [5] was 96 % of control, the T/C [12] was 95 % of control and the T/C [6] was 104 % of control.
For Cc1ccc(S(=O)(=O)N/N=C/c2c(Cl)nc3n2CCS3)cc1, the T/C [16] was 101 % of control, the T/C [17] was 94 % of control and the T/C [18] was 94 % of control.
In the case of CCOC(=O)C(=CNc1cc(C)ccn1)C(=O)OCC, the T/C [1] is reported as 104 % of control, the T/C (dose: 100.0 mg/kg/injection, schedule: Q01DX009 (ip), vehicle: saline with Tween-80) is reported as 95 % of control and the T/C (dose: 100.0 mg/kg/injection, schedule: Q04DX003 (ip), vehicle: saline) is reported as 95 % of control. For the same molecule, the T/C (dose: 200.0 mg/kg/injection, schedule: Q01DX009 (ip), vehicle: saline with Tween-80) was 100 % of control and the T/C (dose: 200.0 mg/kg/injection, schedule: Q04DX003 (ip), vehicle: saline) was 100 % of control.
C=CCNC(=S)NNC(=O)CNC(c1ccc(OC)cc1)C(CC)c1ccc(OC)cc1 (centres undefined) was tested, and the T/C [10] was 99 % of control and the T/C [11] was 110 % of control.
In the case of Fc1ccccc1N/N=c1\nnc2ccccc2s1, the T/C [7] is reported as 97 % of control, the T/C [8] is reported as 93 % of control and the T/C [9] is reported as 92 % of control.
For CCn1c2ccccc2c2cc(N)c(N=Nc3ccc(-c4ccc(N)c(OC)c4)cc3OC)cc21, the T/C [19] was 94 % of control, the T/C (dose: 200.0 mg/kg/injection, schedule: Q04DX003 (ip), vehicle: Klucel (hydroxypropylcellulose) (HPC)) was 95 % of control and the T/C (dose: 400.0 mg/kg/injection, schedule: Q04DX003 (ip), vehicle: Klucel (hydroxypropylcellulose) (HPC)) was 88 % of control.
